# Source: ChEMBL document CHEMBL1139631, “Inhibition of hydrogen peroxide-induced necrotic cell death with 3-amino-2-indolylmaleimide derivatives” (Bioorg Med Chem Lett, 2005)
# How the values were obtained:
# Design in all cases: scale not given: the % may be the effect or the level left
# [1] = target: Ribosomal protein S6 kinase beta-1 (Homo sapiens) (UniProt P23443); experiment: Percentage inhibition of Ribosomal protein S6 kinase at 50 uM
# [2] = target: Protein kinase C alpha type (Homo sapiens) (UniProt P17252); experiment: Percentage inhibition of Protein kinase C alpha at 50 uM
# [3] = target: T1, Protein kinase C iota type (Homo sapiens) (UniProt P41743); experiment: Percentage inhibition of Protein kinase C iota at 50 uM
# T1 sequence (whole entry): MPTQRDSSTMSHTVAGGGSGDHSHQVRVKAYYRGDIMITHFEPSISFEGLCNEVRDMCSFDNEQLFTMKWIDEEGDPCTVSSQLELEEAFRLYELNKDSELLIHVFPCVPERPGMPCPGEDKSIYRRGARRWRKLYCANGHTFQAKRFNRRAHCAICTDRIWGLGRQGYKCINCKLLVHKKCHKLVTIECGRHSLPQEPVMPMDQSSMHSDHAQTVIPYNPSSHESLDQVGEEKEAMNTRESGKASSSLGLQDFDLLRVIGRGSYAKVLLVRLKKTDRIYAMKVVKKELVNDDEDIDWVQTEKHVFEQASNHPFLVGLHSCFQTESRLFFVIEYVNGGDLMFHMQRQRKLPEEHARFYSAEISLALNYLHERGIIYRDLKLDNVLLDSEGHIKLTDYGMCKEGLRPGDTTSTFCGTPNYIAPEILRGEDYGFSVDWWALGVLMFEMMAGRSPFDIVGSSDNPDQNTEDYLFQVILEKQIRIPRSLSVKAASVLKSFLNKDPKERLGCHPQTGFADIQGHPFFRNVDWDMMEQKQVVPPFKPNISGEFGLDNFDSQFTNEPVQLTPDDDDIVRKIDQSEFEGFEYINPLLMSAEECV
# [4] = target: Protein kinase C beta type (Homo sapiens) (UniProt P05771); experiment: Percentage inhibition of Protein kinase C beta 1 at 50 uM
# Chain of Protein kinase C beta type (Homo sapiens) (P05771 2-671 limits assumed): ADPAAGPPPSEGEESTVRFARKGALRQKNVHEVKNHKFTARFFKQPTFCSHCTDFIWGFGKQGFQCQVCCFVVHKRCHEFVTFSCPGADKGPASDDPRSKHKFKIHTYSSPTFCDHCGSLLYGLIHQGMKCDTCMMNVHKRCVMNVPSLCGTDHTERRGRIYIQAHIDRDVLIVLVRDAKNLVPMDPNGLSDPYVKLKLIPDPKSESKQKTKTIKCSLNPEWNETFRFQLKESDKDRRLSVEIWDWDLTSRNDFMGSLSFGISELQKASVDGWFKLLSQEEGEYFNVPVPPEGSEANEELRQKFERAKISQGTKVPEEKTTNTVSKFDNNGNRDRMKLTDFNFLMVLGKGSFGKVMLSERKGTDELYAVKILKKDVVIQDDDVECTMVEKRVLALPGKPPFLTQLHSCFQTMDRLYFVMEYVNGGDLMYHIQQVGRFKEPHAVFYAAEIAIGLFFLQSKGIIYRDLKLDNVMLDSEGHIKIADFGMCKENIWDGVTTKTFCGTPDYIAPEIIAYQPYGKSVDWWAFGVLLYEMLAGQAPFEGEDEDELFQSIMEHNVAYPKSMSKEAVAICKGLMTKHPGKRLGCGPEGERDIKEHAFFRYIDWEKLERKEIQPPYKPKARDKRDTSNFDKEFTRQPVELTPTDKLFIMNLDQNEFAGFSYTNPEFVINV
# [5] = target: T2, Serine/threonine-protein kinase D1 (Homo sapiens) (UniProt Q15139); experiment: Percentage inhibition of Protein kinase C mu at 50 uM
# T2 sequence (whole entry): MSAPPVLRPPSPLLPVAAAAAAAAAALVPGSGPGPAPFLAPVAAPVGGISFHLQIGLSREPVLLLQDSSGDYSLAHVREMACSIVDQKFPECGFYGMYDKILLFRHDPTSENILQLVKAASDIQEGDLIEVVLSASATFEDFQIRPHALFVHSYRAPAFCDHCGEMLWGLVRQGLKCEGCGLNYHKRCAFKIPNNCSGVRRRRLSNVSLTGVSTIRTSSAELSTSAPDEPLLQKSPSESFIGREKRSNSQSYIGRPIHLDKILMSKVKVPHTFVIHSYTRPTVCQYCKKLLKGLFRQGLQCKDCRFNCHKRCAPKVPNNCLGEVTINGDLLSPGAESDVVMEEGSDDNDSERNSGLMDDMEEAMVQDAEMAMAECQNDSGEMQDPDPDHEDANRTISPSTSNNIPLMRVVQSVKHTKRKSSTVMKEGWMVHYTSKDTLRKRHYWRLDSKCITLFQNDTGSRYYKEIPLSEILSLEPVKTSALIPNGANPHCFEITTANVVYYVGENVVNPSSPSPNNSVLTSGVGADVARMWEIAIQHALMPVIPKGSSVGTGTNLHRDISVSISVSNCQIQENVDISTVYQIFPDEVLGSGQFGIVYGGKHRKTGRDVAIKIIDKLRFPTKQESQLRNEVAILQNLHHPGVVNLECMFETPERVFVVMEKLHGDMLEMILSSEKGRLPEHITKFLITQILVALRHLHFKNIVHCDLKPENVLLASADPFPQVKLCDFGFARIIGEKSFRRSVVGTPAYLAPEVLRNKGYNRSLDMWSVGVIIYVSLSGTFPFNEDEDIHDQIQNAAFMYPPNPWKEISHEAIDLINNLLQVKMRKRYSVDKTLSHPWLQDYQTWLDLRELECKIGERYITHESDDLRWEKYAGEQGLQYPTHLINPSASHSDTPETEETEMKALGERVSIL
# [6] = target: T3, Protein kinase C zeta type (Homo sapiens) (UniProt Q05513); experiment: Percentage inhibition against Protein kinase C zeta at 50 uM
# T3 sequence (whole entry): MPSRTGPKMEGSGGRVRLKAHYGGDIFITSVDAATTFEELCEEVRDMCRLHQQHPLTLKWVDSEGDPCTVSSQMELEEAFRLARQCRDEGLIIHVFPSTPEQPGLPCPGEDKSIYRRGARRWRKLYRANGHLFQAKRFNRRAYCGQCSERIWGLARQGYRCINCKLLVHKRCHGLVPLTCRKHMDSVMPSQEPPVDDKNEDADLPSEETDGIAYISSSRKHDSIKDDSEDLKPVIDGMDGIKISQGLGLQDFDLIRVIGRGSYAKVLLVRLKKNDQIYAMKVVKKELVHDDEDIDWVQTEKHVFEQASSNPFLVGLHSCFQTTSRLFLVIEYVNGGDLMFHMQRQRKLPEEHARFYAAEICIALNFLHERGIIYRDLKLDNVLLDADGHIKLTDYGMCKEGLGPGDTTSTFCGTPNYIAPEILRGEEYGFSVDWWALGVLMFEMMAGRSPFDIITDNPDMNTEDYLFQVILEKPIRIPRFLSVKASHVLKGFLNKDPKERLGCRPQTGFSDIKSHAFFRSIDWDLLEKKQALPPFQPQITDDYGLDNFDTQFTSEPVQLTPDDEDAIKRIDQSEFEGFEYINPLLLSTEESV
# [7] = target: Protein kinase C theta type (Homo sapiens) (UniProt Q04759); experiment: Percentage inhibition of Protein kinase C theta at 50 uM
# Chain of Protein kinase C theta type (Homo sapiens) (Q04759 whole entry, looked up): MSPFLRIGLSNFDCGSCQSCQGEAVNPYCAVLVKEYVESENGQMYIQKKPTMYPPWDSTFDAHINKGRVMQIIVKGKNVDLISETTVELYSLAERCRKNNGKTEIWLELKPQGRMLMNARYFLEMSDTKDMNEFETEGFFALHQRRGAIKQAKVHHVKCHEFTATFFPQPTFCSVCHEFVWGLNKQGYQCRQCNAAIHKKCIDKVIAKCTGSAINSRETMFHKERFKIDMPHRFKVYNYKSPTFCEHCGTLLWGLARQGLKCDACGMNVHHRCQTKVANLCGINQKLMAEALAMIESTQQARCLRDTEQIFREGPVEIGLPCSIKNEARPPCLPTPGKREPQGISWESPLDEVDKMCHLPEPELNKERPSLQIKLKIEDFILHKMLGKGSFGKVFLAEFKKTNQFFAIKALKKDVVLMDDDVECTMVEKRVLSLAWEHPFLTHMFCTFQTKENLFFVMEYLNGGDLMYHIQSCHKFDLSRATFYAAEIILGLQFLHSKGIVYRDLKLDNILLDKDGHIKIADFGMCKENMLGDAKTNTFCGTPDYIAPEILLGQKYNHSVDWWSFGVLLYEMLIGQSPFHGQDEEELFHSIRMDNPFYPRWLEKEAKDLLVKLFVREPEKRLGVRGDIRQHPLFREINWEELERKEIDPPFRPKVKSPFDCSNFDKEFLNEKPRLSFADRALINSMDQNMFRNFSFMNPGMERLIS
# [8] = target: T4, Protein kinase C epsilon type (Homo sapiens) (UniProt Q02156); experiment: Percentage inhibition of Protein kinase C epsilon at 50 uM
# T4 sequence (whole entry): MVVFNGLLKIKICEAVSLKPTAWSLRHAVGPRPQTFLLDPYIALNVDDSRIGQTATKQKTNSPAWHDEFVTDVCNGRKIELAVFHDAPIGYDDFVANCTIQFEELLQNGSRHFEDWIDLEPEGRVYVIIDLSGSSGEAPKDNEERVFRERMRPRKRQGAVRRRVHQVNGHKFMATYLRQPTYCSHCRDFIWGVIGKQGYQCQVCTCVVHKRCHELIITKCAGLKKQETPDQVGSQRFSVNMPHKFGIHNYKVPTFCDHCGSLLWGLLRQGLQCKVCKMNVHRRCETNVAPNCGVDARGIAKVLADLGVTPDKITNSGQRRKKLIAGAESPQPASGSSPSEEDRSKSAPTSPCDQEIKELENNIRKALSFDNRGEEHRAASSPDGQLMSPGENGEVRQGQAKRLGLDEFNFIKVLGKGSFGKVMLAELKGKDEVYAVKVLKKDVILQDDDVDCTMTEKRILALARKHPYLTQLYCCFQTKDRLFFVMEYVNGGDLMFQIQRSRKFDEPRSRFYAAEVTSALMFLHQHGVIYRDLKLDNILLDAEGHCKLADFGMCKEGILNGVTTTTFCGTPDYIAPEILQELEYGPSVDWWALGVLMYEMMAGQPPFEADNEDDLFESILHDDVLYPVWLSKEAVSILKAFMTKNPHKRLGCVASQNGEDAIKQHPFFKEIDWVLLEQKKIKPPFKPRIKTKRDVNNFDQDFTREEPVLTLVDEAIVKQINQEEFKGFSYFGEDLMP
# [9] = target: Protein kinase C delta type (Homo sapiens) (UniProt Q05655); experiment: Percentage inhibition of Protein kinase C delta at 50 uM
# Chain of Protein kinase C delta type (Homo sapiens) (Q05655 whole entry, looked up): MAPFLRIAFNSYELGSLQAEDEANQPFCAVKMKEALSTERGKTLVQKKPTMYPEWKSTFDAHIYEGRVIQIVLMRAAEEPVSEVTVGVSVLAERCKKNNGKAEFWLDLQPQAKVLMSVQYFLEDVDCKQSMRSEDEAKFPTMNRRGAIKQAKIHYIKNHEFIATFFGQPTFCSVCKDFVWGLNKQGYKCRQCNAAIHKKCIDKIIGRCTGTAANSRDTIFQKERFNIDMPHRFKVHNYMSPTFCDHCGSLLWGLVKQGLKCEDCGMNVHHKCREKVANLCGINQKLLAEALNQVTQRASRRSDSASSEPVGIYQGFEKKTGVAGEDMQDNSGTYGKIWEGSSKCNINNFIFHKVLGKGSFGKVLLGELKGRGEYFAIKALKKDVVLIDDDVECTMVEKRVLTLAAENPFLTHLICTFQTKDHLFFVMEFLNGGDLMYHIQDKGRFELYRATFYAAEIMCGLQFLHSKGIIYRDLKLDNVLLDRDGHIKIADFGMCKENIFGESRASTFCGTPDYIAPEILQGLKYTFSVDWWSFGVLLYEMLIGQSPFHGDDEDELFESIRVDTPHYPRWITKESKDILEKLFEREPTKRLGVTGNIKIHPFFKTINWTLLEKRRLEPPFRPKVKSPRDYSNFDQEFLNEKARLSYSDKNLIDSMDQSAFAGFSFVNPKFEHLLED
# [10] = target: Protein kinase C eta type (Homo sapiens) (UniProt P24723); experiment: Percentage inhibition of Protein kinase C eta at 50 uM
# Chain of Protein kinase C eta type (Homo sapiens) (P24723 whole entry): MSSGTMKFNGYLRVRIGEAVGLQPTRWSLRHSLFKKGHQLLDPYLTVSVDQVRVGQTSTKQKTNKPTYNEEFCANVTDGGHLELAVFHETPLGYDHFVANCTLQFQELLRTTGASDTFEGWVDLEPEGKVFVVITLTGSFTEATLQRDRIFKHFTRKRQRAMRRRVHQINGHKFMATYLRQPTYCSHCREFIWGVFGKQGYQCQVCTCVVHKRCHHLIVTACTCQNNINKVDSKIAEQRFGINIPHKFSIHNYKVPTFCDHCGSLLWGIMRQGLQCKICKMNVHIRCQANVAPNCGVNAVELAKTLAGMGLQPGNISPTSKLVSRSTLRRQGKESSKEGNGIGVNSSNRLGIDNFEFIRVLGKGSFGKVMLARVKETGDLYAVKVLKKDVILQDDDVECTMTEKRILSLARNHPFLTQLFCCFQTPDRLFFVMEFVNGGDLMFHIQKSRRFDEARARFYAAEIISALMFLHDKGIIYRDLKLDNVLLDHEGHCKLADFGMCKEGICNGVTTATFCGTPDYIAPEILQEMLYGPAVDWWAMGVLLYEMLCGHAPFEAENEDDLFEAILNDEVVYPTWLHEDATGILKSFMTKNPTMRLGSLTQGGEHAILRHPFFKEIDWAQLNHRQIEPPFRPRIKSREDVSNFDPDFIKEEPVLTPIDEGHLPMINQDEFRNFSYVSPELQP
# [11] = target: Protein kinase C beta type (Homo sapiens) (UniProt P05771); experiment: Percentage inhibition of Protein kinase C beta 2 at 50 uM
# [12] = target: Protein kinase C gamma type (Homo sapiens) (UniProt P05129); experiment: Percentage inhibition of Protein kinase C gamma at 50 uM
# Chain of Ribosomal protein S6 kinase beta-1 (Homo sapiens) (P23443 whole entry, looked up): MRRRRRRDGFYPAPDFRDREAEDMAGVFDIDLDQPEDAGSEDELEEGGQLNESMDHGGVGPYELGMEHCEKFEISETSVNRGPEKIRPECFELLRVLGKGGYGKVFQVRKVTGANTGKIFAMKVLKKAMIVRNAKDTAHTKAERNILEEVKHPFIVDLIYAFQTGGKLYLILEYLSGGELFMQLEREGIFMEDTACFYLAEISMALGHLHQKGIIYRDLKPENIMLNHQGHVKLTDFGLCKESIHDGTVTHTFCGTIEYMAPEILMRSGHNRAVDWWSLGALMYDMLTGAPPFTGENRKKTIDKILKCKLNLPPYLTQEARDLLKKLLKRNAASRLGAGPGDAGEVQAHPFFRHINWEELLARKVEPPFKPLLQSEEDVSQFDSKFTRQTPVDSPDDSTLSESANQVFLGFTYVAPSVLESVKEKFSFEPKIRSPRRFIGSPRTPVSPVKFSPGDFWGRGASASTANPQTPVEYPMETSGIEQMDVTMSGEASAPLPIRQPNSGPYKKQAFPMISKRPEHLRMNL
Structure (SMILES),Activity [1] [%],Activity [2] [%],Activity [3] [%],Activity [4] [%],Activity [5] [%],Activity [6] [%],Activity [7] [%],Activity [8] [%],Activity [9] [%],Activity [10] [%],Activity [11] [%],Activity [12] [%]
CCCCCNC1=C(c2cn(C)c3ccccc23)C(=O)N(C)C1=O,96,95,96,84,97,100,100,95,108,98,106,115
CN1C(=O)C(c2c[nH]c3ccccc23)=C(c2cn(CCCN)c3ccccc23)C1=O,28,66,87,78,88,85,78,10,82,55,84,85
